Among the data in ChEMBL document CHEMBL1201862, “PubChem BioAssay data set” (2004) are EC50, IC50 and AC50 values, retold here.

Active and inactive are the calls of the source.

A short description of test [1]: cells. The test is classed as functional, cell-based. The following applies: HEK-CNG.
Test [2] addresses T1, Galanin receptor type 3 (Homo sapiens, UniProt O60755).
T1 sequence (O60755 whole entry): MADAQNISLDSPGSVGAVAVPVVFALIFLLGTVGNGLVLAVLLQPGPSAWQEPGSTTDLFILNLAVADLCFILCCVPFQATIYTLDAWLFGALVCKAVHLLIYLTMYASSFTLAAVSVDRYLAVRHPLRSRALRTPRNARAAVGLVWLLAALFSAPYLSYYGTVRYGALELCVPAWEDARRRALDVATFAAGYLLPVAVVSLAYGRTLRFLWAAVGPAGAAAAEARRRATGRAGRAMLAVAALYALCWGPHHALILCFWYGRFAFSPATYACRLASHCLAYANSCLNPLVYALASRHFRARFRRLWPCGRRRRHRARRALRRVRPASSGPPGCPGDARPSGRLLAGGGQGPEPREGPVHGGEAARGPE
The experiment in a line: Fluorescence-based cell-based primary high throughput dose response assay to identify antagonists of the Galanin Receptor 3 (GalR3). The test is classed as functional.

In test [3] the target is T2, Histone-lysine N-methyltransferase NSD2 (Homo sapiens, UniProt O96028).
T2 sequence (O96028 whole entry): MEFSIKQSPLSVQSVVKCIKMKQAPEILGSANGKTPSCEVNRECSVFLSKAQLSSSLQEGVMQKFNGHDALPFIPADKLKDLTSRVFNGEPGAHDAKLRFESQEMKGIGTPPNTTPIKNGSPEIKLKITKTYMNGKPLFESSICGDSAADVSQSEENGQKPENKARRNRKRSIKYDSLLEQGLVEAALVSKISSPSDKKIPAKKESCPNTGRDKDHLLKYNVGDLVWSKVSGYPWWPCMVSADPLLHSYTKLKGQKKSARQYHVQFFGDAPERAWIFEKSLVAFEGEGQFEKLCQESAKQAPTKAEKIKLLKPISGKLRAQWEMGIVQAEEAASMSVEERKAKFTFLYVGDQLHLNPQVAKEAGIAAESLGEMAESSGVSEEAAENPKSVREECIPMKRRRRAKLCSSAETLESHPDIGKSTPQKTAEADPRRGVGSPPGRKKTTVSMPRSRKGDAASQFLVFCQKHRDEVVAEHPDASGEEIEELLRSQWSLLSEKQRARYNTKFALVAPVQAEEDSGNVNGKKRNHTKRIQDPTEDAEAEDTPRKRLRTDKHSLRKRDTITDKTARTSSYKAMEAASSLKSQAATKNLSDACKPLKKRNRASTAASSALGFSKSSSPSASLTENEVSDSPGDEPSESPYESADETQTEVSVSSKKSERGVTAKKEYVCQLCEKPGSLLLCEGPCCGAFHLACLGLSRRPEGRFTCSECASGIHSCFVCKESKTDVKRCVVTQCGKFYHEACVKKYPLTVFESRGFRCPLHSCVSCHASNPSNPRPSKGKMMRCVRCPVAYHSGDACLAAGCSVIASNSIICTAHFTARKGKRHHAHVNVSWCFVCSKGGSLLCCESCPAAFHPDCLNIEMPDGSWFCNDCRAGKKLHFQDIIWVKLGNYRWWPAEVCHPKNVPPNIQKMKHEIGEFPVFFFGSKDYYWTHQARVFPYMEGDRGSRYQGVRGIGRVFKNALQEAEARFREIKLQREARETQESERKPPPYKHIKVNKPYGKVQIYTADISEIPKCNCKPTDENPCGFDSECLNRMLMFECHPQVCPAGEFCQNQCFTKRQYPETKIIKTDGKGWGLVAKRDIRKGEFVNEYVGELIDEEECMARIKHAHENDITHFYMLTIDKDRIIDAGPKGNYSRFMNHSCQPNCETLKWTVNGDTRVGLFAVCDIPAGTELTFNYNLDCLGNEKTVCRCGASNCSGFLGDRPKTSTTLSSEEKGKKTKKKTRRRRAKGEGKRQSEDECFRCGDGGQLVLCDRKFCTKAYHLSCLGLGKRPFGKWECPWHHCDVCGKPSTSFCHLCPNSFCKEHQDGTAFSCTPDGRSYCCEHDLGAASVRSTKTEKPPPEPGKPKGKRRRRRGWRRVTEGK
The class given is biochemical.

Test [4] can be described thus: A549 cell cytotoxicity, dose response, cytotoxicity control, plate reader, cherry-pick, antagonist series (AID 743412). The class given is functional, cell-based.
Test [5] is described as follows: cytotoxicity in HEK-293T cells, dose response, cytotoxicity control for BCR NF-kB inhibitor project, luminescence, B-cell screen hits (AID 489021).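 Also: HEK-293T cells carrying an NF-kB luciferase reporter; cells exposed to compound for about 14 hours before viability readout.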 The class given is functional, cell-based.
Test [6] concerns the target Sphingosine 1-phosphate receptor 2 (Homo sapiens, UniProt O95136). The experiment in a line: Dose Response Cell Based Assay for Antagonists of the S1P2 Receptor. [Related pubchem assays: 856, 736 ]. The test is classed as functional.
In test [7] the target is T3, Estrogen receptor (Homo sapiens, UniProt P03372).
T3 sequence (P03372 whole entry): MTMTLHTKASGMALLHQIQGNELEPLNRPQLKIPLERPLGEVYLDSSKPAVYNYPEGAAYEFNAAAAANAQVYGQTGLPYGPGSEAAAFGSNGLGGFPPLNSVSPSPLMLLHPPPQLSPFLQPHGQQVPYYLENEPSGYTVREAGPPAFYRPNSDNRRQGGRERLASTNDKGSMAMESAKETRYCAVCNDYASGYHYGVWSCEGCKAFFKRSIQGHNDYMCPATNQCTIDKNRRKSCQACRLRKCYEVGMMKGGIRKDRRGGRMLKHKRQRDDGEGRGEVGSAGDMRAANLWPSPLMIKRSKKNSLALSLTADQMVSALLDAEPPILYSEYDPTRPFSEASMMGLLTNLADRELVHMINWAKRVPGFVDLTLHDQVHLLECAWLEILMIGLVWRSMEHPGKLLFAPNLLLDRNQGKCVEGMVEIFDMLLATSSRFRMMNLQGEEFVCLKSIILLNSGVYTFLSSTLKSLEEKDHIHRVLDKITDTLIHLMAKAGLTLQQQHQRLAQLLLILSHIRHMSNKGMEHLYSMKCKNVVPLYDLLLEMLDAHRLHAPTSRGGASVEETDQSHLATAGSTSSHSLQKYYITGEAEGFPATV

Test [8] can be described thus: Luminescence Cell-Based Dose Confirmation HTS to Identify Inhibitors of Polyadenylation. The test is classed as functional.
The subject of test [9] is Escherichia coli. The experiment in a line: microbe, parasite or virus in culture.
In test [10] the test system is HEK293. The experiment in a line: HEK293T cell cytotoxicity, dose response, cytotoxicity control, ATP luminescence, cherry-pick samples (AID 687005).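 Also: cells exposed to compound for 48 hours.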 The class given is functional, cell-based. The conditions noted are these: Homo sapiens.
In test [11] the test system is Cryptococcus neoformans. The experiment in a line: PubChem AID 686997. The test is classed as functional, organism-based. The conditions noted are these: Cryptococcus neoformans.
Test [12] is described as follows: HEK293 Cytotoxicity Assay Measured in Cell-Based System Using Plate Reader - 7071-01_Inhibitor_Dose_CherryPick_Activity_Set2. The class given is functional.
A short description of test [13]: inhibitors of Vif binding to APOBEC3G peptide, primary screen, biochemical, TR-FRET, GST-Vif 1-94, biotin-A3G peptide, dose response retest (AID 1117319).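 Also: inhibitors lower the FRET signal by blocking Vif and A3G binding.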 The class given is functional. For orientation: In TR-FRET formats the signal depends on donor and acceptor labels being close together.
Test [14] in a line: HepG2 cell cytotoxicity, dose response, cytotoxicity control for Shn3 inhibitor project, CellTiter-Glo, cherry-picked (AID 624134). The test is classed as functional, cell-based. Background: Cellular ATP, detected with luciferase, serves as a proxy for viable cell number.
A short description of test [15]: control 3'UTR Renilla luciferase suppression, dose response, counter-screen for Shn3 inhibitor project, cell-based, Clone20-Shn3RL, cherry-picked (AID 624133). The test is classed as functional. In general terms: A counterscreen serves to expose hits that act by an unwanted route or on another target.
Test [16] can be described thus: Shn3 3'UTR reporter inhibitors, dose response, cell-based, Clone20 osteoblasts, firefly luciferase, cherry-picked (AID 624132).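 Also: firefly luciferase luminescence from reporter carrying the Shn3 3'UTR in osteoblasts.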 The test is classed as functional.
Test [17] deals with Disintegrin and metalloproteinase domain-containing protein 17 (Homo sapiens, UniProt P78536). The experiment in a line: exosite inhibitors of ADAM17, dose response, biochemical (AID 743260).
A short description of test [18]: ADAM10 protease inhibitors, dose response, selectivity assay for ADAM17 exosite inhibitor project, biochemical, FRET peptide substrate, recombinant human ADAM10 (AID 743259).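 Also: ADAM10 enzyme cleaving a FRET peptide substrate.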
In test [19] the target is Estrogen receptor beta (Homo sapiens, UniProt Q92731). The experiment in a line: ERβ–SRC-3 coactivator interaction inhibitors, confirmation, orthogonal assay, biochemical, ELISA, streptavidin-HRP readout (AID 1060).
Test [20] deals with T4, Dual specificity protein phosphatase 6 (Rattus norvegicus, UniProt Q64346).
T4 sequence (Q64346 whole entry): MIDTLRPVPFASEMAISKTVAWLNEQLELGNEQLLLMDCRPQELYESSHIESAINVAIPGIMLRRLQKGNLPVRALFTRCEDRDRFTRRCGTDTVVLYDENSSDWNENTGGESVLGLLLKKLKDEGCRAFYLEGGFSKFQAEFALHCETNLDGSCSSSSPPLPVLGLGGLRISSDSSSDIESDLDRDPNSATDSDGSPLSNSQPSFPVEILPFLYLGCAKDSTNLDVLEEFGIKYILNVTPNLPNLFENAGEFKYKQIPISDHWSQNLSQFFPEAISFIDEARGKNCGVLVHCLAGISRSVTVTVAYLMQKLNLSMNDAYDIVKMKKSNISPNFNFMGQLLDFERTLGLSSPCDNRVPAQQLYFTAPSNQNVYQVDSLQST
The experiment in a line: MKP-3 phosphatase inhibitors, primary screen, biochemical, rat enzyme, in vitro (AID 425).

Test [21] addresses Mitogen-activated protein kinase 10 (Homo sapiens, UniProt P53779). The experiment in a line: Dose response biochemical screening assay for inhibitors of c-Jun N-Terminal Kinase 3 (JNK3). [Related pubchem assays: 746 ].
Test [22] has as its system HeLa. The experiment in a line: HeLa cell cytotoxicity, dose response, cytotoxicity control, ATP luminescence, cherry-pick samples (AID 687004). The following applies: Homo sapiens. The test is classed as functional, cell-based.
Test [23] addresses Voltage-gated N-type calcium channel alpha-1B subunit/Amyloid beta A4 precursor protein-binding family A member 1 (Homo sapiens, UniProt Q00975+Q02410). The class given is protein assay.

Sequence of Sphingosine 1-phosphate receptor 2 (O95136 whole entry): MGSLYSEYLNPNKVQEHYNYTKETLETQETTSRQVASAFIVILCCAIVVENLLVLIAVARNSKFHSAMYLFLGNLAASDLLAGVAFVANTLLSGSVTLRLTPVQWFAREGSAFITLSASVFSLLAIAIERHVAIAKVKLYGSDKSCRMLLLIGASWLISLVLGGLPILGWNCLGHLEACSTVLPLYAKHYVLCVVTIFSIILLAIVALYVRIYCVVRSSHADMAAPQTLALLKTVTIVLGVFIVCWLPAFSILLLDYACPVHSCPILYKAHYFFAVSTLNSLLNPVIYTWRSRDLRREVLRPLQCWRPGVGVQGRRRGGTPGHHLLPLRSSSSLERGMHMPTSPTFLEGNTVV
Sequence of Mitogen-activated protein kinase 10 (P53779 whole entry): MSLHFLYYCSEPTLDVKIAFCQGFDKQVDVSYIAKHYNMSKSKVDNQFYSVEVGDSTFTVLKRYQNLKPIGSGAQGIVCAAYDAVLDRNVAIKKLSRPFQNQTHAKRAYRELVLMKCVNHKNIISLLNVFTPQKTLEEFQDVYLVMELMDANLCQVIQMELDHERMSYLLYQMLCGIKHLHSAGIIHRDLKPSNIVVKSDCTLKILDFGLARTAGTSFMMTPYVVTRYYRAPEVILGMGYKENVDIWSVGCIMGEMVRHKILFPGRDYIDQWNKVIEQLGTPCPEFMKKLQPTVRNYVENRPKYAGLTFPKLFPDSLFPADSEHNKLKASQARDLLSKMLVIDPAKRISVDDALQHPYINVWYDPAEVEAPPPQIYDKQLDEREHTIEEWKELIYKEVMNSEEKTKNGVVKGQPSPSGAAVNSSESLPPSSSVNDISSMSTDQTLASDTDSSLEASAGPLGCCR
Sequence of Disintegrin and metalloproteinase domain-containing protein 17 (P78536 whole entry, the tested form may be a part): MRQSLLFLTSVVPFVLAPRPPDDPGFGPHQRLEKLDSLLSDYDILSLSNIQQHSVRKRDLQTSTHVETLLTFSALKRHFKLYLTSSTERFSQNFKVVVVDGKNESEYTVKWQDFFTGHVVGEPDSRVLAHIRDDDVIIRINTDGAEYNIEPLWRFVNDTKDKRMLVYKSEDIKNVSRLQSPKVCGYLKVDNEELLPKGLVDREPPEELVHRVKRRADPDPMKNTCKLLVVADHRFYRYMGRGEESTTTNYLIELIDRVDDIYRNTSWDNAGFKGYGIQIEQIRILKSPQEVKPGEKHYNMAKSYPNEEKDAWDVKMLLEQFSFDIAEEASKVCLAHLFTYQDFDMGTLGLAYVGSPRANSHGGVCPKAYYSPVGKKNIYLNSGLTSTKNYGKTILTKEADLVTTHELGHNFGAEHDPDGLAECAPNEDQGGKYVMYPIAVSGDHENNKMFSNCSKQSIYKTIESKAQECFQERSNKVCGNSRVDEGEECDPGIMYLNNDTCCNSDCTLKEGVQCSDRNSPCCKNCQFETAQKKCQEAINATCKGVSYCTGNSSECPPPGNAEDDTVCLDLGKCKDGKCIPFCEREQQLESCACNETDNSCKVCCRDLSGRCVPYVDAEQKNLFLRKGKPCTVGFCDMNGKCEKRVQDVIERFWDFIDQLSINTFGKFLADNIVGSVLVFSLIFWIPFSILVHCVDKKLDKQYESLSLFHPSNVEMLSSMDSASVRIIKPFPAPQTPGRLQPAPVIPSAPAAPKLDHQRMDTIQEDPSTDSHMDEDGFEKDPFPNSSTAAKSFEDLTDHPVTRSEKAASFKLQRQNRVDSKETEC
Sequence of Estrogen receptor beta (Q92731 whole entry): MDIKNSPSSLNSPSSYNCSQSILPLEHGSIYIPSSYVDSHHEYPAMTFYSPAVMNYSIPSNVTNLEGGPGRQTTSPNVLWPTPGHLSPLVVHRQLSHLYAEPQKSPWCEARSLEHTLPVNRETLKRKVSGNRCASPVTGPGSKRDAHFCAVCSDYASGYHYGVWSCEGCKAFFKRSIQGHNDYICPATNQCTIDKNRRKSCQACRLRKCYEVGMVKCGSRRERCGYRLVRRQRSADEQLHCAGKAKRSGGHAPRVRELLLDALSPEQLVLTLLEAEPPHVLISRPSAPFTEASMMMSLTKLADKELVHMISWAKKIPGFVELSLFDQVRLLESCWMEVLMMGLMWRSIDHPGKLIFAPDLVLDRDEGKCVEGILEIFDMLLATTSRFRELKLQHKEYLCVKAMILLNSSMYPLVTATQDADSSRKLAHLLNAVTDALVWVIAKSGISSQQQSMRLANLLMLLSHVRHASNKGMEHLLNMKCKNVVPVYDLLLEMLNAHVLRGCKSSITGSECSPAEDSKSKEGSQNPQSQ

For `CC(NCC#Cc1ccccc1)C(O)c1ccccc1` (stereo not given), the EC50 in [1] is > 29.9 µM (inactive). In test [2], the IC50 was > 29.9 µM (inactive). As to `CCN1CCCC1CNc1[nH]cnc2c3cc(F)ccc3nc1-2` (stereo not given), the AC50 in test [3] is > 20 µM (inactive). For the compound `C[C@H](CO)N1C[C@H](C)[C@@H](CN(C)C(=O)Nc2ccc3c(c2)OCO3)Oc2c(cccc2N(C)C)C1=O`, the AC50 in test [4] was > 52 µM (inactive).

On to `O=C(Nc1cccc(Oc2ccc3c(c2)C(=O)NC3=O)c1)c1cccs1`, for which the IC50 in test [5] was > 80 µM (inactive). Consider `FC(F)(F)c1cnc2c(-c3cccs3)csc2c1`, for which the concentration for half-maximal inhibition (IC50) in [6] is recorded as > 30 µM (not active). `Cc1ccc(NC(=O)/C(=C/c2cccc([N+](=O)[O-])c2)NC(=O)C2CCCCC2)c(C)c1`: the IC50 in [7] is recorded as > 50 µM (not active). In test [8], the EC50 is > 120 µM (not active). Also, the AC50 in test [9] is 62.4 µM (active). Take `COC(=O)C1=C(C)N(Cc2ccccc2)C(=S)NC1c1cccc(Br)c1` (stereo not given): the AC50 was 33.6 µM (active) in test [10], 36.5 µM (active) in [11] and 33.6 µM (active) in test [12].

Take `CCC(C)[C@H](N)c1nnc(SCC(=O)c2ccc(Cl)cc2)o1` (stereo not given in full): in [5], the IC50 is > 80 µM (inactive). On to `O=C1c2cnc3nc(SCc4ccccc4)nn3c2CC2c3ccccc3CCN12` (stereo not given), for which, in [8], the EC50 is listed as > 120 µM (not active).

Turning to `O=C(Oc1coc(CSc2ncccn2)cc1=O)c1ccc(Br)o1`, the EC50 in test [8] is on record as > 120 µM (not active). As to `CCN(CC)c1ccc(C2C3CCCCC3(O)CCN2CC(=O)Nc2ccccc2)cc1` (stereo not given), the half-maximal inhibitory concentration (IC50) in test [13] is > 100 µM (active). Consider `Cc1ccc(S(=O)(=O)CCC(=O)Nc2ccc3c(c2)OCO3)cc1`, for which the IC50 in [13] is > 100 µM (active). On to `CCN(CC)S(=O)(=O)c1cc(NC(=O)CNc2cccc(S(=O)(=O)N3CCOCC3)c2)ccc1C`, for which the EC50 in test [1] was > 29.9 µM (inactive). Further, the AC50 in test [14] is 1.89 µM (active); in [15] it was 2.17 µM (active); in test [16] it was 2.97 µM (active). The IC50 in [2] was 0.449 µM (active). For the compound `O=C(Nc1ccc(F)cc1)c1cc(-c2cccs2)nc2ccccc12`, the IC50 in test [6] is given as > 30 µM (not active).

On to `Cc1ccsc1C(=O)Nc1ccc(F)cc1`, for which, in test [6], the IC50 was > 30 µM (not active). Turning to `CC1CN(S(=O)(=O)c2ccc(NC(=O)c3cc(-c4ccccc4O)n[nH]3)cc2)CC(C)O1` (stereo not given), the IC50 in [17] and in test [18] was > 69.5 µM (inactive) throughout. In the case of `O=C(O)C(O)c1ccco1` (stereo not given), the IC50 in test [7] is > 50 µM (not active); in test [19] it was 3.23 µM (not active); in test [20] it was 3.73 µM (active). `CCCc1nc(SCC(=O)N2CCCC2)c2ccccc2n1`: in [21], the half-maximal inhibitory concentration (IC50) is given as 50.4 µM (not active). Turning to `COc1ccccc1NC(=O)COc1ccc(CO)cc1Cl`, the half-maximal inhibitory concentration (IC50) in test [21] is 68.6 µM (not active).

Take `O=C(Nc1ccccc1)N1CCCCN2[C@H](CO)[C@@H](c3ccc(C#CC4CC4)cc3)[C@@H]2C1`: the AC50 in [10] was 14.4 µM (active); in [12] it was 14.4 µM (active); in [22] it was > 52 µM (inactive). On to `O=C(N/N=C/c1ccc([N+](=O)[O-])cc1)c1cc(-c2ccc3c(c2)OCO3)[nH]n1`, for which the IC50 in test [23] is 7.27 µM (active).

For orientation: EC50 means the midpoint of the concentration-response curve. The term IC50 denotes the midpoint of a concentration-inhibition curve. Usually AC50 stands for the midpoint of the concentration-response curve, whichever way the signal moves.
